Measurements published in ChEMBL document CHEMBL4251569, “Camptothecin-psammaplin A hybrids as topoisomerase I and HDAC dual-action inhibitors” (Eur J Med Chem, 2018).

What was measured:
L-428 [1] = assay: cells; format: functional, cell-based; conditions: Homo sapiens, L-428, 72 h
OCI-Ly3 [2] = assay: cells; conditions: Homo sapiens, OCI-Ly3, 72 h
DG-75 [3] = assay: cells; format: functional, cell-based; conditions: Homo sapiens, DG-75, 72 h
cells [4] = format: functional, cell-based; conditions: Homo sapiens, A2780/DX, 72 h
L-428 [5] = assay: Antiproliferative activity against human L428 cells at 10 uM after 72 hrs by MTT assay relative to control; format: functional
A2780 = assay: cells; format: functional, cell-based; conditions: Homo sapiens, A2780, 72 h
cells [6] = format: functional, cell-based; conditions: Homo sapiens, MM487, 72 h
MM473 = assay: animal or person; conditions: Mus musculus, MM473, iv, read-out: INH
HeLa = assay: cells; format: functional, cell-based; conditions: Homo sapiens, 72 h
CAPAN-1 = assay: cells; format: functional, cell-based; conditions: Homo sapiens, CAPAN-1, 72 h
DG-75 [7] = assay: Antiproliferative activity against human DG75 cells at 10 uM after 72 hrs by MTT assay relative to control; format: functional
OCI-Ly3 [8] = assay: Antiproliferative activity against human OCI-LY3 cells at 10 uM after 72 hrs by MTT assay relative to control; format: functional
HepG2 = assay: Antiproliferative activity against human HepG2 cells after 72 hrs by SRB assay; format: functional, cell-based; conditions: HepG2, 72 h
NCI-H460 = assay: cells; format: functional, cell-based; conditions: Homo sapiens, NCI-H460, 72 h
KM-H2 [9] = assay: cells; conditions: Homo sapiens, KM-H2, 72 h
A-431 = assay: cells; format: functional, cell-based; conditions: Homo sapiens, A-431, 72 h
cells [10] = format: functional, cell-based; conditions: Homo sapiens, MINO, 72 h
KM-H2 [11] = assay: Antiproliferative activity against human KM-H2 cells at 10 uM after 72 hrs by MTT assay relative to control; format: functional
[12] = Antiproliferative activity against human Mino cells at 10 uM after 72 hrs by MTT assay relative to control; format: functional
NB-4 = assay: cells; format: functional, cell-based; conditions: Homo sapiens, NB-4, 72 h
HT-29 = assay: Antiproliferative activity against human HT-29 cells after 72 hrs by SRB assay; format: functional, cell-based; conditions: HT-29, 72 h
DU-145 = assay: cells; format: functional, cell-based; conditions: Homo sapiens, DU-145, 72 h
cells [13] = format: functional, cell-based; conditions: Homo sapiens, 72 h
U2932 = assay: cells; format: functional, cell-based; conditions: Homo sapiens, U2932, 72 h
JeKo-1 [14] = assay: cells; format: functional, cell-based; conditions: Homo sapiens, JeKo-1, 72 h
cells [15] = format: functional, cell-based; conditions: Homo sapiens, 72 h; remark: listed apart in the source
JeKo-1 [16] = assay: Antiproliferative activity against human JeKo1 cells at 10 uM after 72 hrs by MTT assay relative to control; format: functional

SMILES	IC50 (cells [4])	IC50 (A2780)	IC50 (HeLa)	IC50 (CAPAN-1)	IC50 (HepG2)	IC50 (NCI-H460)	IC50 (A-431)	IC50 (HT-29)	IC50 (DU-145)	also measured
CCc1c2c(nc3ccc(OC(=O)N4CCC(N5CCCCC5)CC4)cc13)-c1cc3c(c(=O)n1C2)COC(=O)[C@]3(O)CC [IRINOTECAN]	20100 nM	3800 nM	5800 nM	1500 nM	4000 nM	2400 nM	4100 nM	4800 nM	2800 nM	IC50 (L-428 [1]): > 10000 nM; IC50 (OCI-Ly3 [2]): > 10000 nM; IC50 (DG-75 [3]): > 10000 nM; Activity (L-428 [5]): 0%; IC50 (cells [6]): 9400 nM; inhibition in vivo at 20 mg/kg (MM473): 37%; Activity (DG-75 [7]): 0%; Activity (OCI-Ly3 [8]): 0%; IC50 (KM-H2 [9]): > 10000 nM; IC50 (cells [10]): > 10000 nM; Activity (KM-H2 [11]): 12%; Activity [12]: 36%; IC50 (NB-4): 1000 nM; IC50 (cells [13]): 740 nM; IC50 (U2932): 4400 nM; IC50 (JeKo-1 [14]): > 10000 nM; IC50 (cells [15]): 10000 nM; Activity (JeKo-1 [16]): 48%
CC[C@@]1(O)C(=O)OCc2c1cc1n(c2=O)Cc2c-1nc1ccccc1c2/C=N/OCCCCCC(=O)NCCSSCCNC(=O)/C(Cc1ccc(O)cc1)=N\O	1600 nM	290 nM	580 nM	75 nM	610 nM	220 nM	310 nM	460 nM	190 nM	
